For series [1], the system named is Mus musculus. In words: Induction of skeletal muscle relaxation in po dosed albino mouse after 60 mins. Format: functional. The note with it: 1 h.
In series [2] the test system is Mus musculus. In words: Induction of skeletal muscle relaxation in ip dosed albino mouse after 60 mins. The series is classed as functional. The conditions noted are these: 1 h.
For series [3], the system named is Rattus norvegicus. In words: Inhibition of gastrocnemius twitch in Sprague-Dawley rat at cumulative dose of 36.6 mg/kg, iv relative to control. The series is classed as functional.
Series [4] concerns Rattus norvegicus. In words: Inhibition of gastrocnemius twitch in iv dosed Sprague-Dawley rat. The series is classed as functional.
The species entered for series [5] is Mus musculus. As to the kind of experiment: Induction of straub tail relaxation in albino mouse assessed as gain of righting reflex in 1 min. The series is classed as functional.
The species named for series [6] is Mus musculus. In words: Induction of muscle incoordination in mouse after 30 mins by rotarod test. The conditions noted are these: in vivo, 0.5 h. Format: organism-based, Muscle tissue. For orientation: The rotarod test checks motor coordination on a turning rod.
The species named for series [7] is Mus musculus. In words: Muscle relaxant efficacy index, ratio of ED50 for muscle incoordination in mouse to ED50 for induction of straub tail relaxation in albino mouse.
A short description of series [8]: Toxicity in albino mouse after 72 hrs. The series is classed as organism-based. The note with it: in vivo.
The nature of series [9]: (§1) Inhibition of twitch in Charles River rat diaphragm at 60 mg/L after 5 mins. The series is classed as functional.
For series [10], the species on record is Rattus norvegicus. The series is described as §1. Format: functional.
A short description of series [11]: Therapeutic index, ratio of LD50 for albino mouse to ED50 for induction of straub tail relaxation in albino mouse. Format: organism-based. The note with it: in vivo, read-out: Ratio LD50/ED50.

The values that follow come from ChEMBL document CHEMBL3272305, “Synthesis and comparative skeletal muscle relaxant activity of some 2,4-imidazolidinediones and their corresponding 5-hydroxy-2,4-imidazolidinediones” (J Med Chem, 1978).

A word on the ED50: it is the midpoint of the dose-response relation. A word on the inhibition in vivo: it is the relative decrease from the control value, in per cent. As a reminder, the LD50 is the dose at which mortality reaches 50%. Read a high LD50 as a less toxic substance. In general, inhibition refers to how much of the control response was suppressed.

Activity calls are given as the source filed them. The rule behind the calls is not given here.

Turning to `O=C1NC(=O)N(/N=C/c2ccc(-c3cccc(C(F)(F)F)c3)o2)C1O` (stereo not given), the median effective dose (ED50) was 166 mg/kg in [1]; 244 mg/kg in series [2]; 96 µmol/kg in series [4]; greater than 1000 mg/kg in series [5]; 85 mg/kg in series [6]. For the same compound, the inhibition in vivo at 36.6 mg/kg in series [3] is -57%. Further, the “Ratio ED50” value in series [7] is reported as less than 0.09. Also, the LD50 at 72 h in series [8] worked out at 563 mg/kg. In [9], this compound had an inhibition at 60 µg/mL of no less than 40%.
For `CC(=O)Nc1ccc(-c2ccc(/C=N/N3C(=O)NC(=O)C3O)o2)cc1` (stereo not given), the ED50 in series [1] is greater than 1000 mg/kg; in series [2], greater than 1000 mg/kg; in series [4] it was greater than 107 µmol/kg; in [5], greater than 1000 mg/kg; in [6] it was greater than 1000 mg/kg. The inhibition in vivo at 36.6 mg/kg in [3] is -10%. Also, the LD50 at 72 h in [8] was found to be 673 mg/kg. For the same compound, the inhibition result in series [10] was “inactive”.
Turning to `O=C1NC(=O)N(/N=C/c2ccc(-c3ccc([N+](=O)[O-])cc3)o2)C1O` (stereo not given), the 50% effective dose (ED50) is greater than 1000 mg/kg in series [1]; greater than 1000 mg/kg in [2]; 15 µmol/kg in [4]; greater than 1000 mg/kg in series [5]; 171 mg/kg in series [6]. For the same compound, the inhibition in vivo at 36.6 mg/kg in [3] is -76%. The “Ratio ED50” value in series [7] was less than 0.17. The LD50 at 72 h in series [8] was greater than 5000 mg/kg. Further, in series [9], the inhibition at 60 µg/mL was no less than 40%.
`O=C1CN(/N=C/c2ccc(-c3ccc(F)cc3)o2)C(=O)N1`: the median effective dose (ED50) in series [1] was found to be 112 mg/kg; in [2] it was 105 mg/kg; in series [4] it was 38 µmol/kg; in series [5], 950 mg/kg; in series [6], 369 mg/kg. Further, in series [3], the inhibition in vivo at 36.6 mg/kg was -71%. For the same compound, the “Ratio ED50” value in [7] was 0.4. Besides, the LD50 at 72 h in [8] turned out to be 1400 mg/kg. The selectivity ratio in [11] stood at 1.5. The inhibition at 60 µg/mL in [9] is no less than 40%.
Take `O=C1NC(=O)N(/N=C/c2ccc(-c3ccc(F)cc3)o2)C1O` (stereo not given): the 50% effective dose (ED50) was greater than 1000 mg/kg in series [1]; 1000 mg/kg in series [2]; 91 µmol/kg in series [4]; greater than 1000 mg/kg in series [5]; 240 mg/kg in [6]. In addition, the inhibition in vivo at 36.6 mg/kg in [3] was -53%. The “Ratio ED50” value in [7] is listed as less than 0.24. Besides, the 50% lethal dose (LD50) at 72 h in series [8] stood at 784 mg/kg. This compound had an inhibition at 60 µg/mL in series [9] of no less than 40%.
Regarding `CC(=O)Nc1ccc(-c2ccc(/C=N/N3CC(=O)NC3=O)o2)cc1`, the 50% effective dose (ED50) in series [1] is greater than 1000 mg/kg; in series [2] it was greater than 1000 mg/kg; in [4], greater than 112 µmol/kg; in series [5], greater than 1000 mg/kg; in series [6], greater than 1000 mg/kg. Moreover, in series [3], the inhibition in vivo at 36.6 mg/kg stood at 4%. Also, in series [8], the LD50 at 72 h worked out at 1140 mg/kg. Further, in series [10], the inhibition entry is “inactive”.
On to `N#Cc1ccc(-c2ccc(/C=N/N3C(=O)NC(=O)C3O)o2)cc1` (stereo not given), for which the 50% effective dose (ED50) in series [1] is greater than 1000 mg/kg; in series [2], 156 mg/kg; in series [4], 25 µmol/kg; in series [5] it was 743 mg/kg; in series [6] it was 96 mg/kg. Further, the inhibition in vivo at 36.6 mg/kg in series [3] was -69%. Moreover, the “Ratio ED50” value in series [7] came out at 0.13. In series [8], this compound returned a 50% lethal dose (LD50) at 72 h of 104 mg/kg. Moreover, in [11], the selectivity ratio was determined as 0.14. The compound further returned an inhibition at 60 µg/mL in series [9] of no less than 40%.
Take `O=C1NC(=O)N(/N=C/c2ccc(-c3ccc(Cl)c(Cl)c3)o2)C1O` (stereo not given): the ED50 amounted to 109 mg/kg in series [1]; 72 mg/kg in series [2]; 19 µmol/kg in series [4]; 34 mg/kg in series [5]; 10 mg/kg in series [6]. Also, the inhibition in vivo at 36.6 mg/kg in series [3] is -82%. Moreover, in [7], the “Ratio ED50” value is 0.3. The same compound showed an LD50 at 72 h in series [8] of 209 mg/kg. In addition, the selectivity ratio in [11] was 6.1. In addition, in series [9], the inhibition at 60 µg/mL was no less than 40%.
For `O=C1CN(/N=C/c2ccc(-c3ccc(Cl)c(Cl)c3)o2)C(=O)N1` [CLODANOLENE], the ED50 in series [1] was greater than 1000 mg/kg; in [2], 647 mg/kg; in series [4], 10 µmol/kg; in series [5], greater than 1000 mg/kg; in series [6] it was 181 mg/kg. Further, the inhibition in vivo at 36.6 mg/kg in series [3] is -77%. In addition, in series [7], the “Ratio ED50” value is on record as less than 0.18. Also, in series [8], the LD50 at 72 h is greater than 7000 mg/kg. In addition, the inhibition at 60 µg/mL in series [9] was no less than 40%.
On to `N#Cc1ccc(-c2ccc(/C=N/N3CC(=O)NC3=O)o2)cc1`, for which the median effective dose (ED50) in [1] was greater than 1000 mg/kg; in series [2], greater than 1000 mg/kg; in series [4], 20 µmol/kg; in series [5], greater than 1000 mg/kg; in series [6], 91 mg/kg. Also, the inhibition in vivo at 36.6 mg/kg in series [3] was -76%. In addition, in [7], the “Ratio ED50” value is reported as less than 0.09. In series [8], this compound displayed a 50% lethal dose (LD50) at 72 h of 2340 mg/kg. This compound came in with an inhibition at 60 µg/mL in [9] of no less than 40%.
Regarding `Nc1ccc(-c2ccc(/C=N/N3CC(=O)NC3=O)o2)cc1`, the ED50 in [1] is greater than 1000 mg/kg; in [2], greater than 1000 mg/kg; in series [4] it was greater than 129 µmol/kg; in [5], greater than 1000 mg/kg; in series [6] it was greater than 1000 mg/kg. Moreover, the inhibition in vivo at 36.6 mg/kg in [3] was -19%. Also, in [8], the median lethal dose (LD50) at 72 h came to 1040 mg/kg. Besides, in series [10], the inhibition entry was “inactive”.
Consider `O=C1CN(/N=C/c2ccc(-c3ccc([N+](=O)[O-])cc3)o2)C(O)=N1` [DANTROLENE], for which the ED50 came out at 490 mg/kg in series [1]; 83 mg/kg in series [2]; 7 µmol/kg in series [4]; 56 mg/kg in series [5]; 153 mg/kg in series [6]. For the same compound, in series [3], the inhibition in vivo at 36.6 mg/kg was -80%. For the same compound, the “Ratio ED50” value in series [7] is recorded as 2.7. The median lethal dose (LD50) at 72 h in [8] was greater than 7000 mg/kg. Moreover, in series [11], the selectivity ratio was 124. In [9], this compound showed an inhibition at 60 µg/mL of no less than 40%.
Regarding `O=C1NC(=O)N(/N=C/c2ccc(-c3ccc(Cl)cc3)o2)C1O` (stereo not given), the ED50 in series [1] is greater than 1000 mg/kg; in series [2], greater than 1000 mg/kg; in series [4], 16 µmol/kg; in series [5] it was greater than 1000 mg/kg; in [6], 63 mg/kg. Moreover, the inhibition in vivo at 36.6 mg/kg in series [3] was -77%. In addition, the “Ratio ED50” value in series [7] is recorded as less than 0.06. In series [8], this compound yielded an LD50 at 72 h of 522 mg/kg. Moreover, the inhibition at 60 µg/mL in series [9] is no less than 40%.
Take `Nc1ccc(-c2ccc(/C=N/N3C(=O)NC(=O)C3O)o2)cc1` (stereo not given): the median effective dose (ED50) in [1] is greater than 1000 mg/kg; in series [2], greater than 1000 mg/kg; in [4], 39 µmol/kg; in series [5], greater than 1000 mg/kg; in series [6] it was greater than 1000 mg/kg. Also, the inhibition in vivo at 36.6 mg/kg in series [3] was -67%. Further, in series [8], the LD50 at 72 h was 192 mg/kg. The same compound showed an inhibition at 60 µg/mL in [9] of no less than 40%.
With `O=C1CN(/N=C/c2ccc(-c3cccc(C(F)(F)F)c3)o2)C(=O)N1`, the ED50 in series [1] amounted to 647 mg/kg; in [2], 143 mg/kg; in series [4] it was 50 µmol/kg; in [5] it was 184 mg/kg; in [6], 166 mg/kg. In [3], the inhibition in vivo at 36.6 mg/kg was -74%. For the same compound, the “Ratio ED50” value in series [7] was found to be 0.85. This compound also showed an LD50 at 72 h in series [8] of 274 mg/kg. Besides, the selectivity ratio in series [11] was 1.4. In [9], this compound gave an inhibition at 60 µg/mL of no less than 40%.
In the case of `O=C1CN(/N=C/c2ccc(-c3ccc(Cl)cc3)o2)C(=O)N1`, the ED50 in [1] was greater than 1000 mg/kg; in series [2], 1000 mg/kg; in series [4], 22 µmol/kg; in [5], greater than 1000 mg/kg; in series [6], 40 mg/kg. The inhibition in vivo at 36.6 mg/kg in series [3] was -74%. In series [7], the “Ratio ED50” value is recorded as less than 0.04. Besides, the LD50 at 72 h in [8] was greater than 6000 mg/kg. In series [9], this compound came in with an inhibition at 60 µg/mL of no less than 40%.
